{"source": "patent US8158621B2", "about": "“Methods of treating or preventing autoimmune diseases with 2,4-pyrimidinediamine compounds” (Rigel Pharmaceuticals, Inc., priority 2002, dated 2012)"}
{"test_system": "Human Jurkat T-cells (clone N)", "test": "Jurkat T-cell activation (anti-TCR, CD69 upregulation)", "format": "cell-based", "settings": "not given", "in_short": "(§1)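 Readout is CD69 upregulation by flow cytometry (anti-CD69-APC, 20 min at 4 °C) after 20 h anti-TCR (C305, 500 ng/ml) stimulation at 37 °C.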", "units": {"IC50": "µM"}}
{"smiles": "CCOC(=O)COc1cccc(Nc2nc(Nc3cccc(C(C)(C)C)c3)ncc2F)c1", "note": "[Compound R940266]", "IC50": "> 10"}
{"smiles": "Cn1ncc2cc(Nc3ncc(F)c(Nc4ccc5c(c4)NC(=O)C(C)(C)O5)n3)ccc21", "note": "[Compound R940338]", "IC50": 0.708}
{"smiles": "Nc1cccc(Nc2nc(Nc3cccc(NCCOCc4ccccc4)c3)ncc2F)c1", "note": "[Compound R950176]", "IC50": "> 10"}
{"smiles": "O=C(COc1cccc(Nc2ncc(F)c(Nc3cccc(O)c3)n2)c1)NCC(O)CO", "note": "(stereo not drawn) [Compound R926746]", "IC50": 3.7}
{"smiles": "COC(=O)c1cc2ccc(Nc3ncc(F)c(Nc4cccc(O)c4)n3)cc2[nH]1", "note": "[Compound R926903]", "IC50": "> 10"}
{"smiles": "CNCCNC(=O)c1cc2cc(Nc3ncc(F)c(Nc4ccc5oc(C(=O)NCCNC)cc5c4)n3)ccc2o1", "note": "[Compound R950170]", "IC50": "> 10"}
{"smiles": "Cc1nc(COc2cccc(Nc3nc(Nc4ccc(OC(C)C)cc4)ncc3F)c2)no1", "note": "[Compound R945138]", "IC50": "> 10"}
{"smiles": "Cc1ccc(-c2ccccc2)cc1Nc1ncc(C)c(Nc2cc(-c3ccccc3)ccc2C)n1", "note": "[Compound R935001]", "IC50": "> 10"}
{"smiles": "CN(C)CCCNC(=O)CNc1cccc(Nc2ncc(F)c(Nc3cccc(NCCO)c3)n2)c1", "note": "[Compound R950237]", "IC50": 12.9}
{"smiles": "CNC(=O)COc1cccc(Nc2ncc(F)c(Nc3ccc(OC)c(F)c3)n2)c1", "note": "[Compound R926892]", "IC50": 1.64}
{"smiles": "Oc1cccc(Nc2ncc(F)c(Nc3ccc(OCCN4CCOCC4)cc3)n2)c1", "note": "[Compound R926710]", "IC50": 4.27}
{"smiles": "COC(=O)COc1ccc(Nc2ncc(F)c(Nc3cccc(C#N)c3)n2)cc1", "note": "[Compound R945110]", "IC50": "> 10"}
{"smiles": "O=C(COc1cccc(Nc2ncc(F)c(Nc3ccc4c(c3)OCCO4)n2)c1)NC1CCCCC1", "note": "[Compound R926765]", "IC50": 8}
{"smiles": "CC(C)c1cccc(Nc2nc(Nc3cccc(OCC(=O)NC[C@@H](O)CO)c3)ncc2F)c1", "note": "[Compound R940307]", "IC50": 2.06}
{"smiles": "CC(C)c1cccc(Nc2nc(Nc3cccc(OCCO)c3)ncc2F)c1", "note": "[Compound R940289]", "IC50": 3.65}
{"smiles": "Fc1cnc(Nc2cccc(NCCOCc3ccccc3)c2)nc1Nc1cccc(NCCOCc2ccccc2)c1", "note": "[Compound R950174]", "IC50": "> 10"}
{"smiles": "CNC(=O)COc1cccc(Nc2ncc(F)c(Nc3cccc(C(=O)c4ccccc4)c3)n2)c1", "note": "[Compound R950372]", "IC50": 2.19}
{"smiles": "CNCCNC(=O)CNc1cccc(Nc2ncc(F)c(Nc3cccc(NCCO)c3)n2)c1", "note": "[Compound R950234]", "IC50": "> 10"}
{"smiles": "COc1ccc(Nc2nc(Nc3cc(C)c(O)c(Cl)c3)ncc2F)cc1CN1CCNCC1", "note": "[Compound R940318]", "IC50": 1.39}
{"smiles": "CCOC(=O)C(C)(C)Oc1cccc(Nc2ncc(F)c(Nc3cccc(O)c3)n2)c1", "note": "[Compound R926906]", "IC50": "> 10"}
{"smiles": "CCOC(=O)C(C)(C)Oc1cccc(Nc2ncc(F)c(Nc3ccc4c(c3)OCCO4)n2)c1", "note": "[Compound R926907]", "IC50": 17.1}
{"smiles": "CC(C)Oc1ccc(Nc2nc(Nc3ccc4[nH]ncc4c3)ncc2F)cc1", "note": "[Compound R935197]", "IC50": 2.43}
{"smiles": "CNC(=O)COc1cccc(Nc2ncc(F)c(Nc3ccc(C#N)c(C)c3)n2)c1", "note": "[Compound R926851]", "IC50": 3.09}
{"smiles": "COC(=O)COc1cccc(Nc2ncc(F)c(Nc3cc(C)c(O)c(Cl)c3)n2)c1", "note": "[Compound R945148]", "IC50": 16.2}
{"smiles": "CNC(=O)COc1cccc(Nc2ncc(F)c(Nc3ccc(C)c(Cl)c3)n2)c1", "note": "[Compound R926839]", "IC50": 2.48}
{"smiles": "CNC(=O)COc1cccc(Nc2ncc(F)c(Nc3ccc(C)c(C(F)(F)F)c3)n2)c1", "note": "[Compound R926922]", "IC50": 6.12}
{"smiles": "O=C(COc1cccc(Nc2ncc(F)c(Nc3cccc(O)c3)n2)c1)N1CCNCC1", "note": "[Compound R926773]", "IC50": 1.84}
{"smiles": "OCCn1ncc2cc(Nc3nc(Nc4ccc5c(c4)OCCO5)ncc3F)ccc21", "note": "[Compound R935258]", "IC50": 6.26}
{"smiles": "O=C(COc1cccc(Nc2ncc(F)c(Nc3ccc4c(c3)OCCO4)n2)c1)NC(CO)CO", "note": "[Compound R926784]", "IC50": 2.38}
{"smiles": "CC(C)Oc1ccc(Nc2ncc(F)c(Nc3ccc4[nH]ncc4c3)n2)cc1", "note": "[Compound R935266]", "IC50": "> 10"}
{"smiles": "CNC(=O)COc1cccc(Nc2ncc(F)c(Nc3ccc4c(c3)N(C)CCO4)n2)c1", "note": "[Compound R909259]", "IC50": "> 10"}
{"smiles": "CCOC(=O)COc1ccc(Nc2ncc(C#N)c(Nc3ccc(OCC(=O)OCC)cc3)n2)cc1", "note": "[Compound R925775]", "IC50": "> 10"}
{"smiles": "CNC(=O)COc1cccc(Nc2ncc(F)c(Nc3cccc(N)c3)n2)c1", "note": "[Compound R950262]", "IC50": 3.15}
{"smiles": "COc1ccc(Nc2nc(Nc3cccc(OCC(=O)NCC(O)CO)c3)ncc2F)cc1OC", "note": "(stereo not drawn) [Compound R926734]", "IC50": 11.3}
{"smiles": "CN1CCN(C(=O)CNc2cccc(Nc3ncc(F)c(Nc4cccc(O)c4)n3)c2)CC1", "note": "[Compound R950223]", "IC50": 2.77}
{"test_system": "Human Jurkat T-cells (clone N)", "test": "Jurkat T-cell activation (anti-TCR, CD69 upregulation)", "format": "cell-based", "settings": "Homo sapiens", "in_short": "as §1", "units": {"IC50": "µM"}}
{"smiles": "Cc1ccc([N+](=O)[O-])cc1Nc1ncc(F)c(Nc2cc([N+](=O)[O-])ccc2C)n1", "note": "[Compound R950146]", "IC50": "> 10"}
{"test_system": "Human Jurkat T-cells (clone N)", "test": "Jurkat T-cell activation (anti-TCR, CD69 upregulation)", "format": "cell-based", "settings": "Homo sapiens, Jurkat", "in_short": "as §1", "units": {"IC50": "µM"}}
{"smiles": "Oc1cccc(Nc2nc(Nc3cccc(-c4nnn[nH]4)c3)ncc2F)c1", "note": "[Compound R926842]", "IC50": "> 10"}
{"smiles": "CN(C)c1ccc(Nc2ncc(F)c(Nc3ccc(N(C)C)cc3)n2)cc1", "note": "[Compound R926086]", "IC50": 6.63}
{"smiles": "CCNC(=O)Nc1ccc(Nc2ncc(F)c(Nc3ccc(NC(=O)NCC)cc3)n2)cc1", "note": "[Compound R945040]", "IC50": "> 10"}
{"smiles": "CCOc1ccc(Nc2ccnc(Nc3ccc(OCC)cc3)n2)cc1", "note": "[Compound R926069]", "IC50": 4.31}
{"smiles": "CCOc1ccc(Nc2ccnc(Nc3ccc(OCC)c(N)c3)n2)cc1N", "note": "[Compound R950142]", "IC50": 29.1}
{"smiles": "COc1cccc(Nc2ncc(F)c(Nc3cccc(OC)c3)n2)c1", "note": "[Compound R926065]", "IC50": 6.73}
{"smiles": "Oc1cccc(Nc2nc(NCCN3CCN(Cc4ccccc4)CC3)ncc2F)c1", "note": "[Compound R940261]", "IC50": 10.9}
{"smiles": "CN1C(=O)COc2ccc(Nc3nc(Nc4cccc(O)c4)ncc3F)cc21", "note": "[Compound R908709]", "IC50": 3.39}
{"smiles": "Oc1ccc(CCNc2ncc(F)c(NCCc3ccc(O)cc3)n2)cc1", "note": "[Compound R925791]", "IC50": "> 10"}
{"smiles": "Fc1cnc(Nc2ccccc2-c2ccccc2)nc1Nc1ccccc1-c1ccccc1", "note": "[Compound R926398]", "IC50": "> 10"}
{"smiles": "Fc1cnc(NCCc2ccccc2)nc1Nc1ccc2c(c1)OCCO2", "note": "(racemic) [Compound R908697]", "IC50": "> 10"}
{"smiles": "Fc1ccc(Nc2ncc(F)c(Nc3ccc4c(c3)OCCO4)n2)cc1Cl", "note": "[Compound R926218]", "IC50": "> 10"}
{"smiles": "COCCOc1cccc(Nc2ncc(F)c(Nc3cccc(OCCOC)c3)n2)c1", "note": "[Compound R935076]", "IC50": "> 10"}
{"smiles": "COc1cc(Nc2ncc(F)c(Nc3cc(OC)c(OC)c(OC)c3)n2)cc(OC)c1OC", "note": "[Compound R926688]", "IC50": 3.78}
{"smiles": "CN1C(=O)COc2cc(Nc3nc(Nc4cccc(O)c4)ncc3F)ccc21", "note": "[Compound R909264]", "IC50": 3.24}
{"smiles": "CC(C)Nc1cccc(Nc2ncc(F)c(Nc3cccc(NC(C)C)c3)n2)c1", "note": "[Compound R950166]", "IC50": "> 10"}
{"smiles": "Cc1cc(Nc2ncc(F)c(Nc3cccc(C(C)(C)C)c3)n2)cc(Cl)c1O", "note": "[Compound R940271]", "IC50": "> 10"}
{"smiles": "COC(=O)c1cc(N)cc(Nc2ncc(F)c(Nc3cc(N)cc(C(=O)OC)c3)n2)c1", "note": "[Compound R950134]", "IC50": 6.46}
{"smiles": "CCOc1ccc(Nc2ncc(C)c(Nc3ccc(OCC)cc3)n2)cc1", "note": "[Compound R926068]", "IC50": 11.4}
{"smiles": "COc1ccc(-c2ccccc2)cc1Nc1ncc(C)c(Nc2cc(-c3ccccc3)ccc2OC)n1", "note": "[Compound R935000]", "IC50": "> 10"}
{"smiles": "Fc1cnc(Nc2ccc3c(c2)OCCO3)nc1NCc1csc2ccc(Cl)cc12", "note": "[Compound R926721]", "IC50": 3.46}
